Test results reported in ChEMBL document CHEMBL4825673, “Total and Semisyntheses of Polymyxin Analogues with 2-Thr or 10-Thr Modifications to Decipher the Structure-Activity Relationship and Improve the Antibacterial Activity” (J Med Chem, 2021).
Values after ≈ are worked out from the molar mass of the structure shown. Positions of bridges follow the written chain, without caps; N, C: chain ends. Non-standard residues stand in square brackets, D forms with d. Residues, ends and D or L forms follow the SMILES beside them. *: point of attachment. Octanoyl = CCCCCCCC(=O)*; Dab = NCC[C@H](N)C(=O)O

Assays:
Format in all cases: functional
Settings in all cases: read-out: MIC100
Pseudomonas aeruginosa [1] = experiment: Antibacterial activity against Pseudomonas aeruginosa assessed as inhibition of bacterial growth incubated for 24 hrs by broth microdilution method
Klebsiella pneumoniae = experiment: Antibacterial activity against Klebsiella pneumoniae assessed as inhibition of bacterial growth incubated for 24 hrs by broth microdilution method
Pseudomonas aeruginosa [2] = experiment: Antibacterial activity against Pseudomonas aeruginosa PAO1 assessed as inhibition of bacterial growth incubated for 24 hrs by broth microdilution method
Escherichia coli = experiment: Antibacterial activity against Escherichia coli assessed as inhibition of bacterial growth incubated for 24 hrs by broth microdilution method
Acinetobacter baumannii = experiment: Antibacterial activity against Acinetobacter baumannii assessed as inhibition of bacterial growth incubated for 24 hrs by broth microdilution method
Moraxella catarrhalis = experiment: Antibacterial activity against Moraxella catarrhalis assessed as inhibition of bacterial growth incubated for 24 hrs by broth microdilution method

Compound	MIC (Pseudomonas aeruginosa [1]) [mg/L]	MIC (Klebsiella pneumoniae) [mg/L]	MIC (Pseudomonas aeruginosa [2]) [mg/L]	MIC (Escherichia coli) [mg/L]	MIC (Acinetobacter baumannii) [mg/L]	MIC (Moraxella catarrhalis) [mg/L]
CC(C)CCCCC(=O)N[C@@H](CCN)C(=O)N[C@H](C(=O)N[C@@H](CCN)C(=O)N[C@H]1CCNC(=O)[C@H]([C@@H](C)O)NC(=O)[C@H](CCN)NC(=O)[C@H](CCN)NC(=O)[C@H](CC(C)C)NC(=O)[C@@H](Cc2ccccc2)NC(=O)[C@H](CCN)NC1=O)[C@@H](C)OC(=O)[C@@H](N)CC(C)C	0.125 (≈ 0.096 µM)	1 (≈ 0.768 µM)	4 (≈ 3.07 µM)	0.25 (≈ 0.192 µM)	0.06 (≈ 0.0461 µM)	> 16
CC(C)CCCCC(=O)N[C@@H](CCN)C(=O)N[C@H](C(=O)N[C@@H](CCN)C(=O)N[C@H]1CCNC(=O)[C@H]([C@@H](C)OC(=O)CN)NC(=O)[C@H](CCN)NC(=O)[C@H](CCN)NC(=O)[C@H](CC(C)C)NC(=O)[C@@H](Cc2ccccc2)NC(=O)[C@H](CCN)NC1=O)[C@@H](C)OC(=O)CN	0.25 (≈ 0.192 µM)	1 (≈ 0.767 µM)	1 (≈ 0.767 µM)	0.25 (≈ 0.192 µM)	0.125 (≈ 0.0959 µM)	> 64
CC(C)CCCCC(=O)N[C@@H](CCN)C(=O)N[C@H](C(=O)N[C@@H](CCN)C(=O)N[C@H]1CCNC(=O)[C@H]([C@@H](C)O)NC(=O)[C@H](CCN)NC(=O)[C@H](CCN)NC(=O)[C@H](CC(C)C)NC(=O)[C@@H](Cc2ccccc2)NC(=O)[C@H](CCN)NC1=O)[C@@H](C)OC(=O)[C@@H](N)CO	0.25 (≈ 0.196 µM)	1 (≈ 0.783 µM)	1 (≈ 0.783 µM)	0.25 (≈ 0.196 µM)	0.125 (≈ 0.0979 µM)	32 (≈ 25.1 µM)
CC[C@H](C)CCCCC(=O)N[C@@H](CCN)C(=O)N[C@H](C(=O)N[C@@H](CCN)C(=O)N[C@H]1CCNC(=O)[C@H]([C@@H](C)O)NC(=O)[C@H](CCN)NC(=O)[C@H](CCN)NC(=O)[C@H](CC(C)C)NC(=O)[C@@H](Cc2ccccc2)NC(=O)[C@H](CCN)NC1=O)[C@@H](C)OC(=O)CN	0.125 (≈ 0.0992 µM)	0.5 (≈ 0.397 µM)	4 (≈ 3.17 µM)	0.25 (≈ 0.198 µM)	0.125 (≈ 0.0992 µM)	> 64
CC(C)CCCCC(=O)N[C@@H](CCN)C(=O)N[C@H](C(=O)N[C@@H](CCN)C(=O)N[C@H]1CCNC(=O)[C@H]([C@@H](C)O)NC(=O)[C@H](CCN)NC(=O)[C@H](CCN)NC(=O)[C@H](CC(C)C)NC(=O)[C@@H](Cc2ccccc2)NC(=O)[C@H](CCN)NC1=O)[C@@H](C)OC(=O)[C@@H](N)CCCCN	0.25 (≈ 0.19 µM)	4 (≈ 3.04 µM)	2 (≈ 1.52 µM)	0.5 (≈ 0.379 µM)	0.125 (≈ 0.0949 µM)	> 64
CC(C)CCCCC(=O)N[C@@H](CCN)C(=O)N[C@H](C(=O)N[C@@H](CCN)C(=O)N[C@H]1CCNC(=O)[C@H]([C@@H](C)O)NC(=O)[C@H](CCN)NC(=O)[C@H](CCN)NC(=O)[C@H](CC(C)C)NC(=O)[C@@H](Cc2ccccc2)NC(=O)[C@H](CCN)NC1=O)[C@@H](C)OC(=O)[C@@H](N)Cc1c[nH]cn1	0.5 (≈ 0.377 µM)	4 (≈ 3.02 µM)	2 (≈ 1.51 µM)	0.5 (≈ 0.377 µM)	0.125 (≈ 0.0942 µM)	8 (≈ 6.03 µM)
CC(C)CCCCC(=O)N[C@@H](CCN)C(=O)N[C@H](C(=O)N[C@@H](CCN)C(=O)N[C@H]1CCNC(=O)[C@H]([C@@H](C)O)NC(=O)[C@H](CCN)NC(=O)[C@H](CCN)NC(=O)[C@H](CC(C)C)NC(=O)[C@@H](Cc2ccccc2)NC(=O)[C@H](CCN)NC1=O)[C@@H](C)OC(=O)[C@@H](N)CCCNC(=N)N	0.5 (≈ 0.372 µM)	1 (≈ 0.743 µM)	2 (≈ 1.49 µM)	0.5 (≈ 0.372 µM)	0.25 (≈ 0.186 µM)	> 16
CC(C)CCCCC(=O)N[C@@H](CCN)C(=O)N[C@H](C(=O)N[C@@H](CCN)C(=O)N[C@H]1CCNC(=O)[C@H]([C@@H](C)O)NC(=O)[C@H](CCN)NC(=O)[C@H](CCN)NC(=O)[C@H](CC(C)C)NC(=O)[C@@H](Cc2ccccc2)NC(=O)[C@H](CCN)NC1=O)[C@@H](C)OC(=O)CN	0.25 (≈ 0.201 µM)	1 (≈ 0.802 µM)	2 (≈ 1.6 µM)	0.25 (≈ 0.201 µM)	0.06 (≈ 0.0481 µM)	> 16
CC(C)CCCCC(=O)N[C@@H](CCN)C(=O)N[C@H](C(=O)N[C@@H](CCN)C(=O)N[C@H]1CCNC(=O)[C@H]([C@@H](C)O)NC(=O)[C@H](CCN)NC(=O)[C@H](CCN)NC(=O)[C@H](CC(C)C)NC(=O)[C@@H](Cc2ccccc2)NC(=O)[C@H](CCN)NC1=O)[C@@H](C)OC(=O)[C@@H](N)C(C)C	0.5 (≈ 0.388 µM)	4 (≈ 3.1 µM)	2 (≈ 1.55 µM)	0.5 (≈ 0.388 µM)	1 (≈ 0.776 µM)	> 32
CSCC[C@H](N)C(=O)O[C@H](C)[C@H](NC(=O)[C@H](CCN)NC(=O)CCCCC(C)C)C(=O)N[C@@H](CCN)C(=O)N[C@H]1CCNC(=O)[C@H]([C@@H](C)O)NC(=O)[C@H](CCN)NC(=O)[C@H](CCN)NC(=O)[C@H](CC(C)C)NC(=O)[C@@H](Cc2ccccc2)NC(=O)[C@H](CCN)NC1=O	0.125 (≈ 0.0946 µM)	2 (≈ 1.51 µM)	2 (≈ 1.51 µM)	0.25 (≈ 0.189 µM)	0.125 (≈ 0.0946 µM)	> 16
CC(C)CCCCC(=O)N[C@@H](CCN)C(=O)N[C@H](C(=O)N[C@@H](CCN)C(=O)N[C@H]1CCNC(=O)[C@H]([C@@H](C)O)NC(=O)[C@H](CCN)NC(=O)[C@H](CCN)NC(=O)[C@H](CC(C)C)NC(=O)[C@@H](Cc2ccccc2)NC(=O)[C@H](CCN)NC1=O)[C@H](C)OC(=O)[C@@H](N)CCC(N)=O	0.25 (≈ 0.19 µM)	2 (≈ 1.52 µM)	2 (≈ 1.52 µM)	0.5 (≈ 0.379 µM)	0.06 (≈ 0.0455 µM)	> 32
CC(C)CCCCC(=O)N[C@@H](CCN)C(=O)N[C@H](C(=O)N[C@@H](CCN)C(=O)N[C@H]1CCNC(=O)[C@H]([C@@H](C)O)NC(=O)[C@H](CCN)NC(=O)[C@H](CCN)NC(=O)[C@H](CC(C)C)NC(=O)[C@@H](Cc2ccccc2)NC(=O)[C@H](CCN)NC1=O)[C@@H](C)OC(=O)[C@@H](N)Cc1ccccc1	0.25 (≈ 0.187 µM)	0.5 (≈ 0.374 µM)	4 (≈ 2.99 µM)	0.5 (≈ 0.374 µM)	0.25 (≈ 0.187 µM)	> 32
CC(C)CCCCC(=O)N[C@@H](CCN)C(=O)N[C@H](C(=O)N[C@@H](CCN)C(=O)N[C@H]1CCNC(=O)[C@H]([C@@H](C)O)NC(=O)[C@H](CCN)NC(=O)[C@H](CCN)NC(=O)[C@H](CC(C)C)NC(=O)[C@@H](Cc2ccccc2)NC(=O)[C@H](CCN)NC1=O)[C@@H](C)OC(=O)[C@@H](N)CS	0.25 (≈ 0.193 µM)	1 (≈ 0.774 µM)	2 (≈ 1.55 µM)	0.25 (≈ 0.193 µM)	0.125 (≈ 0.0967 µM)	32 (≈ 24.8 µM)
CC(C)CCCCC(=O)N[C@@H](CCN)C(=O)N[C@H](C(=O)N[C@@H](CCN)C(=O)N[C@H]1CCNC(=O)[C@H]([C@@H](C)O)NC(=O)[C@H](CCN)NC(=O)[C@H](CCN)NC(=O)[C@H](CC(C)C)NC(=O)[C@@H](Cc2ccccc2)NC(=O)[C@H](CCN)NC1=O)[C@@H](C)OC(=O)[C@@H](N)Cc1c[nH]c2ccccc12	0.125 (≈ 0.0909 µM)	2 (≈ 1.45 µM)	2 (≈ 1.45 µM)	0.25 (≈ 0.182 µM)	0.06 (≈ 0.0436 µM)	> 32
CC(C)CCCCC(=O)N[C@@H](CCN)C(=O)N[C@H](C(=O)N[C@@H](CCN)C(=O)N[C@H]1CCNC(=O)[C@H]([C@@H](C)O)NC(=O)[C@H](CCN)NC(=O)[C@H](CCN)NC(=O)[C@H](CC(C)C)NC(=O)[C@@H](Cc2ccccc2)NC(=O)[C@H](CCN)NC1=O)[C@@H](C)OC(=O)[C@H](C)N	0.25 (≈ 0.198 µM)	2 (≈ 1.59 µM)	1 (≈ 0.793 µM)	0.25 (≈ 0.198 µM)	0.125 (≈ 0.0992 µM)	> 32
CC[C@H](C)CCCCC(=O)N[C@@H](CCN)C(=O)N[C@H](C(=O)N[C@@H](CCN)C(=O)N[C@H]1CCNC(=O)[C@H]([C@@H](C)O)NC(=O)[C@H](CCN)NC(=O)[C@H](CCN)NC(=O)[C@H](CC(C)C)NC(=O)[C@@H](Cc2ccccc2)NC(=O)[C@H](CCN)NC1=O)[C@@H](C)OC(=O)[C@@H](N)CCC(N)=O	0.125 (≈ 0.0939 µM)	2 (≈ 1.5 µM)	2 (≈ 1.5 µM)	0.25 (≈ 0.188 µM)	0.06 (≈ 0.0451 µM)	> 32
CCCCCCCC(=O)N[C@@H](CCN)C(=O)N[C@H](C(=O)N[C@@H](CCN)C(=O)N[C@H]1CCNC(=O)[C@H](CC(C)C)NC(=O)[C@H](CCN)NC(=O)[C@H](CCN)NC(=O)[C@H](CC(C)C)NC(=O)[C@@H](Cc2ccccc2)NC(=O)[C@H](CCN)NC1=O)[C@@H](C)O (Octanoyl-[Dab]T[Dab][Dab][Dab][dF]L[Dab][Dab]L; lactam 4-C)	0.25 (≈ 0.208 µM)	2 (≈ 1.66 µM)	4 (≈ 3.33 µM)	4 (≈ 3.33 µM)	2 (≈ 1.66 µM)	2 (≈ 1.66 µM)
